Values of other authors, collected in US3995028A, “Antibiotic OS-3256-B” (The Kitasato Institute, priority 1975, dated 1976).

Tested on: animal tumors such as leukemia L-1210, Sarcoma-180 and Hela cells

Compound: C[C@H](N)C(=O)N[C@@H](CCC(=O)C=[N+]=[N-])C(=O)N[C@@H](CCC(=O)C=[N+]=[N-])C(=O)O [Alazopeptin, L-alanyl-(6-diazo-5-oxo)-L-norleucyl-(6-diazo-5-oxo)-L-norleucine]
- inhibitory activity against animal tumors: inhibitory activity against animal tumors
